Test results from ChEMBL document CHEMBL1129864, “A new series of selective COX-2 inhibitors: 5,6-diarylthiazolo[3,2-b][1,2,4]triazoles” (Bioorg Med Chem Lett, 1997).

How the values were obtained:
[1] = Percentage recovery after 3h incubation with rat hapatocytes was determined; type: ADME, organism-based; conditions: hepatocytes, read-out: Recovery
[2] = target: Prostaglandin G/H synthase 1 (Homo sapiens, UniProt P23219)
Description: Tested in vitro for the ability to inhibit Prostaglandin G/H synthase 1 in chinese hamster ovary (CHO) cells

[3] = target: T1, Prostaglandin G/H synthase 2 (Homo sapiens, UniProt P35354); type: cell-based, CHO
T1 sequence (P35354 whole entry): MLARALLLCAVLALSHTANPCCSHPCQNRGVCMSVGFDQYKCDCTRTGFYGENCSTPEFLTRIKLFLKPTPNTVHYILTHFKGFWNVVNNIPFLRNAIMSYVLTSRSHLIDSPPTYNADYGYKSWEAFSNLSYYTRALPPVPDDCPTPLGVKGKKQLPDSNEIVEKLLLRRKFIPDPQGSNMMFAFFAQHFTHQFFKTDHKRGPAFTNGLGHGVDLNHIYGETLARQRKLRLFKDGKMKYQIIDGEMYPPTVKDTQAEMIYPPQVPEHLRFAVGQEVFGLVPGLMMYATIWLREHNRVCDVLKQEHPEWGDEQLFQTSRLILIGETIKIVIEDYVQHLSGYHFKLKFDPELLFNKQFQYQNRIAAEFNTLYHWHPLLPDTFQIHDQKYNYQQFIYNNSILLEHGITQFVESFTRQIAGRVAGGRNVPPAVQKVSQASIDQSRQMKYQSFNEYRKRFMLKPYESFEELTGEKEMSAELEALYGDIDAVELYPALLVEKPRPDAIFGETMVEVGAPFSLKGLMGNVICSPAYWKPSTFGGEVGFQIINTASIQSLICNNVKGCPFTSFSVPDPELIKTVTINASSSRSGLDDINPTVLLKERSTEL
Description: Tested in vitro for the ability to inhibit Prostaglandin G/H synthase 2 in chinese hamster ovary (CHO) cells

[4] = target: T1, Prostaglandin G/H synthase 2; type: organism-based, Blood
Description: In vivo ability to inhibit Prostaglandin G/H synthase 2 in human whole blood assay

[5] = Maximum concentration at 4 hr after administration of 5 mg/kg dose peroral in rat; type: ADME, organism-based; parameters: dose 5 mg/kg, route oral; conditions: in vivo, po
[6] = Bioavailability at 4 hr after administration of 5 mg/kg dose peroral in rat; type: ADME, organism-based; conditions: in vivo, po
[7] = species on record: Rattus norvegicus; experiment: Intrinsic activity in the rat hyperalgesia assay; type: functional; conditions: read-out: ID50 (the source's name)
[8] = species on record: Rattus norvegicus; experiment: Plasma clearance in rat; type: ADME, organism-based; conditions: in vivo
[9] = species on record: Rattus norvegicus; experiment: Intrinsic activity in the rat pyresis assay; type: functional
[10] = test system: Rattus norvegicus; experiment: Intrinsic activity in the rat paw edema model; type: functional

Chain of Prostaglandin G/H synthase 1 (P23219 whole entry): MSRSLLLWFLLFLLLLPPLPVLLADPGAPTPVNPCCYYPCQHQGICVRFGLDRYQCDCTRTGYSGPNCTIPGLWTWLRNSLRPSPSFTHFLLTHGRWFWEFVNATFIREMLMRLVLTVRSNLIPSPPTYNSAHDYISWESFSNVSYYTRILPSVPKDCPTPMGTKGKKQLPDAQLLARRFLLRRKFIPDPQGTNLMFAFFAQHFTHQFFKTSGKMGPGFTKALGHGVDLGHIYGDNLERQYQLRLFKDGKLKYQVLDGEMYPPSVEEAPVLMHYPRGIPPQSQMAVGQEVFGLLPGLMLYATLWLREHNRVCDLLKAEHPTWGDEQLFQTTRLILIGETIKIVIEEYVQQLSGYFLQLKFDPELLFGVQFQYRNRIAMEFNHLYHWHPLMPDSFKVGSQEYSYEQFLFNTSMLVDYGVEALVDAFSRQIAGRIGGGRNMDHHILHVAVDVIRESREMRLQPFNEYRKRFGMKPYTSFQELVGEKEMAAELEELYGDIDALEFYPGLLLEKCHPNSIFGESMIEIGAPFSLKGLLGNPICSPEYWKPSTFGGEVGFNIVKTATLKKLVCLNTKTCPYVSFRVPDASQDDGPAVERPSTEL

Structure (SMILES)	IC50 [2] [µM]	IC50 [3] [µM]	IC50 [4] [µM]	other results
CS(=O)(=O)c1ccc(-c2c(-c3ccccc3)nc3sccn23)cc1				remaining at 3 h [1]: < 10%
CS(=O)(=O)c1ccc(-c2sc3nc(C(F)(F)F)nn3c2-c2cccc(F)c2)cc1	8.5	0.013		
CS(=O)(=O)c1ccc(-c2sc3ncnn3c2-c2cc(F)cc(F)c2)cc1	> 50	0.08		
CCc1nc2sc(-c3ccc(S(C)(=O)=O)cc3)c(-c3ccccc3)n2n1	2.4	0.015		
CS(=O)(=O)c1ccc(-c2sc3nc(C(F)(F)F)nn3c2-c2ccccc2)cc1	1.1			
CS(=O)(=O)c1ccc(-c2sc3ncnn3c2-c2ccc(F)cc2)cc1	15	0.036		
CS(=O)(=O)c1ccc(-c2c(-c3ccccc3)sc3nc(C(F)(F)F)nn23)cc1	9	> 50		
CS(=O)(=O)c1ccc(-c2c(-c3ccccc3)sc3nncn23)cc1	2.1	0.23		
C=Cc1nc2sc(-c3ccc(S(C)(=O)=O)cc3)c(-c3ccccc3)n2n1	9.6	0.006	4.1	
CS(=O)(=O)c1ccc(-c2sc3ncnn3c2-c2cccc(F)c2)cc1	> 50	0.022	4.2	
CS(=O)(=O)c1ccc(-c2sc3ncnn3c2-c2ccccc2)cc1	43	0.01	2.3	Cmax [5]: 7.2 µM; remaining at 3 h [1]: > 95%; bioavailability [6]: ~100%; ED50 [7]: 1 mg/kg; Clearance [8]: 13 mL/min/kg; ED50 [9]: 1 mg/kg; ED50 [10]: 1.7 mg/kg
CS(=O)(=O)c1ccc(-c2c(-c3ccccc3)sc3ncnn23)cc1	> 50	0.032	> 30	
CS(=O)(=O)c1ccc(-c2sc3nncn3c2-c2ccccc2)cc1	> 50	0.45		
COc1cccc(-c2c(-c3ccc(S(C)(=O)=O)cc3)sc3ncnn23)c1	> 50	0.26		
Cc1nc2sc(-c3ccc(S(C)(=O)=O)cc3)c(-c3ccccc3)n2n1	> 50	0.02	10	
Cc1nc2sc(-c3ccc(S(C)(=O)=O)cc3)c(-c3cccc(F)c3)n2n1	> 50	0.15	14	
CC(C)c1nc2sc(-c3ccc(S(C)(=O)=O)cc3)c(-c3ccccc3)n2n1	0.6	0.011		
CS(=O)(=O)c1ccc(-c2sc3ncnn3c2-c2ccc(F)c(F)c2)cc1	30	0.048	> 30	
Cc1cccc(-c2c(-c3ccc(S(C)(=O)=O)cc3)sc3nc(C(F)(F)F)nn23)c1	0.61	0.003		
